Laboratory results reported in US9192656B2, “Methods and compositions for the treatment of cancer” (QUINTESSENCE BIOSCIENCES, INC., priority 2006, dated 2015).

Experiments:
[1] = system: human breast cancer cell line (MDA-MB-231); experiment: In vivo inhibition of tumor growth, MDA-MB-231 xenograft; parameters: species or system human tumor cells in nude mice; details: Example 10, Table 14, female mice, RNase 1 75 mg/kg 1×wk, doxorubicin 3 mg/kg once per week
Method: (§1) Cells from a non-small cell lung cancer cell line (A549) were grown in nine T175 flasks in F12K media and 10% fetal calf serum until the cells were confluent. 4.5×10^6 cells (in 100 microliters) were injected into the right rear flank of 4-5 week old male homozygous (nu/nu) nude mice (Harlan, Madison Wis.). Tumors were allowed to grow to an average size of ≧75 mm^3 before treatments were initiated. Animals of each tumor type, with the properly sized tumors, were divided into treatment groups, including one set of animals treated weekly with vehicle (phosphate buffered saline, PBS). The vehicle and the test agents were all administered by intraperitoneal injection. Each animal was weighed twice a week during treatment. The tumors were measured twice weekly using calipers. Tumor volume (mm^3) was determined by using the formula for an ellipsoid sphere: […]
(§2) The percent tumor growth inhibition (% TGI) is calculated by: […]
The xenograft model of this example was set up as in the previous example except that a human breast cancer cell line (MDA-MB-231) and female mice were used. The efficacy of wild type human RNase 1 is shown relative to doxorubicin. The RNase 1 was administered at 75 mg per kg of body weight of the animal once per week (75 mg/kg 1×wk), while the doxorubicin was given at 3 mg/kg once per week. The value of n represents the number of animals in the specific treatment arm of the experiment.

[2] = system: non-small cell lung cancer cell line (A549); experiment: In vivo inhibition of tumor growth, A549 xenograft; parameters: species or system human tumor cells in nude mice; details: for Starting volume: at start
Method: Cells from a non-small cell lung cancer cell line (A549) were grown in nine T175 flasks in F12K media and 10% fetal calf serum until the cells were confluent. 4.5×10^6 cells (in 100 microliters) were injected into the right rear flank of 4-5 week old male homozygous (nu/nu) nude mice (Harlan, Madison Wis.). Tumors were allowed to grow to an average size of ≧75 mm^3 before treatments were initiated. Animals of each tumor type, with the properly sized tumors, were divided into treatment groups, including one set of animals treated weekly with vehicle (phosphate buffered saline, PBS). The vehicle and the test agents were all administered by intraperitoneal injection. Each animal was weighed twice a week during treatment. The tumors were measured twice weekly using calipers. Tumor volume (mm^3) was determined by using the formula for an ellipsoid sphere:
[formula] The efficacy of wild type human RNase 1 is shown relative to cisplatin. The RNase 1 was administered at 75 mg per kg of body weight of the animal once a week (75 mg/kg 1×wk), while the cisplatin was used at 6 mg/kg once a week. The value of n represents the number of animals in the specific treatment arm of the experiment.
as §2
The xenograft model of this example was set up with the human non-small cell lung cancer cell line (A549) as in the previous examples. The efficacy of wild type human RNase 1 is shown relative to tarceva. The RNase 1 was administered at 75 mg per kg of body weight of the animal (75 mg/kg 1×wk) or 150 mg/kg 1×wk. Tarceva was given orally with doses of 50 mg/kg twice a week. The value of n represents the number of animals in the specific treatment arm of the experiment.

[3] = Clinical chemistry and complete blood count plus platelets (DU145 xenograft mice); format: in vivo
Method: Clinical chemistry and a complete blood count (CBC) plus platelets were performed on whole blood and serum samples collected from the mice 24 hours after the last treatment of the prostate xenograft model above. […] Creatinine was also tested and found not to differ. The levels of the liver enzymes, gamma glutamyl transferase (GGT) and alanine transaminase (ALT) in all treatment groups were similar (GGT data not shown.). The values were determined for the various treatment groups of the prostate (DU145) xenograft study for clinical chemistry (A., B.), complete blood count (C., D.), and platelets (F.). Abbreviations: TCO2, amount of bicarbonate ion (HCO3^−); Anion Gap, [Na+K]—[Cl+HCO3]; ALT, alanine aminotransferase; WBC, white blood count; RBC, red blood count; HGB, hemoglobin; RBC HGB, (CHCM×RBC×MCV)/1000); MCH, mean corpuscular hemoglobin; MCHC, mean corpuscular hemoglobin concentration; RDW, red cell distribution width; MPV, mean platelet volume; HCT, hematocrit; MCV, mean corpuscular volume.

[4] = system: human pancreatic cancer cell line (B×PC-3); experiment: In vivo inhibition of tumor growth, BxPC-3 xenograft; parameters: species or system human tumor cells in nude mice; details: for Starting volume: at start
Method: as §1, §2
The xenograft model of this example was set up as in the previous example except that a human pancreatic cancer cell line (B×PC-3) was used. The efficacy of wild type human RNase 1 is shown relative to gemcite. The RNase 1 was administered at 15 mg per kg of body weight of the animal five times per week (15 mg/kg qd×5), while the gemcite was used at 60 mg/kg twice a week. The value of n represents the number of animals in the specific treatment arm of the experiment.
The xenograft model of this example was set up as in the previous example except that a human pancreatic cancer cell line (B×PC-3) was used. The efficacy of wild type human RNase 1 is shown. The RNase 1 was administered at three different doses: (1) 30 mg per kg of body weight of the animal once per week (30 mg/kg 1×wk), (2) 75 mg/kg 1×wk, or (3) 150 mg/kg 1×wk. The value of n represents the number of animals in the specific treatment arm of the experiment.

[5] = Example 3, Table 7, i.p., RNase 1 75 mg/kg 1×wk, cisplatin 6 mg/kg once a week
[6] = Example 6, Table 10, 75 mg/kg 1×wk
[7] = Example 6, Table 10, 150 mg/kg 1×wk
[8] = Example 5, Table 9, RNase 1 15 mg/kg qd×5, gemcite 60 mg/kg twice a week
[9] = Example 7, Table 11, 30 mg/kg 1×wk
[10] = Example 7, Table 11, 75 mg/kg 1×wk
[11] = Example 7, Table 11, 150 mg/kg 1×wk

## Wild type human RNase 1: wild type human ribonuclease 1 (human pancreatic RNase), SEQ ID NO:1
[1]
  % TGI: 64%
  (Final − start): 50 mm^3
  (Final − start)/Control: 0.36
  Final volume: 121 mm^3
[1]; at start
  Starting volume: 71 mm^3
[2]; [5]
  % TGI: 51%
  (Final − start): 149 mm^3
  (Final − start)/Control: 0.49
  Final volume: 217 mm^3
  Starting volume: 68 mm^3
[2]; [6]
  % TGI: 63%
  (Final − start): 300 mm^3
  (Final − start)/Control: 0.37
  Final volume: 378 mm^3
  Starting volume: 78 mm^3
[2]; [7]
  % TGI: 66%
  (Final − start): 276 mm^3
  (Final − start)/Control: 0.34
  Final volume: 355 mm^3
  Starting volume: 79 mm^3
[3]; 24 hours after the last treatment
  Creatinine versus vehicle: not to differ
[3]; whole blood and serum 24 hours after the last treatment, Mann-Whitney U test
  Clinical chemistry and complete blood count plus platelets, all tests, versus vehicle: not to be significantly different
[4]; [8]
  % TGI: 24%
  (Final − start): 822 mm^3
  (Final − start)/Control: 0.76
  Final volume: 899 mm^3
  Starting volume: 77 mm^3
[4]; [9]
  % TGI: 3%
  (Final − start): 554 mm^3
  (Final − start)/Control: 0.97
  Final volume: 632 mm^3
  Starting volume: 78 mm^3
[4]; [10]
  % TGI: 43%
  (Final − start): 323 mm^3
  (Final − start)/Control: 0.57
  Final volume: 392 mm^3
  Starting volume: 69 mm^3
[4]; [11]
  % TGI: 29%
  (Final − start): 402 mm^3
  (Final − start)/Control: 0.71
  Final volume: 471 mm^3
  Starting volume: 69 mm^3
